This assay has as its target T1, PI3Kα H1047R (T47D cells) (Homo sapiens, UniProt P42336, H1047R).
T1 construct: endogenous in cells; host or cells: T47D cells
The assay is described as follows: PI3Kα cellular assay: pAKT HTRF in T47D cells after EGF stimulation. In kind it is cell-based. Particulars: for IC50: T47D cells (PI3Kα H1047R), pAKT S473 HTRF, EGF stimulation. In short, it runs like this:
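T47D cells (PIK3CA H1047R) serum-starved 16 h, then treated 1 h at 37 °C with compound (10,000 nM top, 3-fold steps to 0.5 nM). After 10 min stimulation with 20 ng/mL EGF, cells were lysed and pAKT measured by HTRF.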
In general terms: In TR-FRET formats the signal depends on donor and acceptor labels being close together.

Where [1] appears, read: selectivity of T47D (H1047R) over SKBR3 (WT) pAKT IC50.
Setting [2] is: selectivity T47D (H1047R) over SKBR3 (WT), pAKT HTRF.

T1 sequence (P42336 whole entry H1047R): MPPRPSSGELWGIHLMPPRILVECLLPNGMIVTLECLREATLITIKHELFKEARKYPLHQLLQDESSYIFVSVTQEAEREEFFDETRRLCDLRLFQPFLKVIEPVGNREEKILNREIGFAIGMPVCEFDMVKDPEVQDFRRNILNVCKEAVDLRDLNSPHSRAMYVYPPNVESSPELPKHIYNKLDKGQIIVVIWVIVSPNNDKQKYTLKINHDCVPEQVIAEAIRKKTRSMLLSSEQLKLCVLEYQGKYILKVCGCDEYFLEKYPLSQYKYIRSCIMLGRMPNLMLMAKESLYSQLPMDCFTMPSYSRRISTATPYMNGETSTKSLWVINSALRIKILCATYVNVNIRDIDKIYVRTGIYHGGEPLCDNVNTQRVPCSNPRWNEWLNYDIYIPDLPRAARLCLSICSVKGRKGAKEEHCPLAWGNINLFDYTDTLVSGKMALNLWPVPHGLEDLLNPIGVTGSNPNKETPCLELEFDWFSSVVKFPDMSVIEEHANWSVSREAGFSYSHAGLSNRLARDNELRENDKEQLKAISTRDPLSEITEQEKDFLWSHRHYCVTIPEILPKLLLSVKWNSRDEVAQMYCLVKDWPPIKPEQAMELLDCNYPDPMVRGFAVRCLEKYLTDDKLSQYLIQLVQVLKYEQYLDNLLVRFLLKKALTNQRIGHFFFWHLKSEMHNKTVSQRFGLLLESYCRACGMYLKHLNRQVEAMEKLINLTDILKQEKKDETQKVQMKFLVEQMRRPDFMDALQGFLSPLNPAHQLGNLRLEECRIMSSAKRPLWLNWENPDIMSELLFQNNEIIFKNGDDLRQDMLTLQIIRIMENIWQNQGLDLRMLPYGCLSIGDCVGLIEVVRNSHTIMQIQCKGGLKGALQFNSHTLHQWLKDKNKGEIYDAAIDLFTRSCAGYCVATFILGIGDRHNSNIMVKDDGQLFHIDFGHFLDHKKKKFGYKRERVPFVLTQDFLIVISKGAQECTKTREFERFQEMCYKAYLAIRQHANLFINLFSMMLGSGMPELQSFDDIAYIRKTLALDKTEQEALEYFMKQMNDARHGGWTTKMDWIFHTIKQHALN
T1 sequence (P27986 whole entry partner): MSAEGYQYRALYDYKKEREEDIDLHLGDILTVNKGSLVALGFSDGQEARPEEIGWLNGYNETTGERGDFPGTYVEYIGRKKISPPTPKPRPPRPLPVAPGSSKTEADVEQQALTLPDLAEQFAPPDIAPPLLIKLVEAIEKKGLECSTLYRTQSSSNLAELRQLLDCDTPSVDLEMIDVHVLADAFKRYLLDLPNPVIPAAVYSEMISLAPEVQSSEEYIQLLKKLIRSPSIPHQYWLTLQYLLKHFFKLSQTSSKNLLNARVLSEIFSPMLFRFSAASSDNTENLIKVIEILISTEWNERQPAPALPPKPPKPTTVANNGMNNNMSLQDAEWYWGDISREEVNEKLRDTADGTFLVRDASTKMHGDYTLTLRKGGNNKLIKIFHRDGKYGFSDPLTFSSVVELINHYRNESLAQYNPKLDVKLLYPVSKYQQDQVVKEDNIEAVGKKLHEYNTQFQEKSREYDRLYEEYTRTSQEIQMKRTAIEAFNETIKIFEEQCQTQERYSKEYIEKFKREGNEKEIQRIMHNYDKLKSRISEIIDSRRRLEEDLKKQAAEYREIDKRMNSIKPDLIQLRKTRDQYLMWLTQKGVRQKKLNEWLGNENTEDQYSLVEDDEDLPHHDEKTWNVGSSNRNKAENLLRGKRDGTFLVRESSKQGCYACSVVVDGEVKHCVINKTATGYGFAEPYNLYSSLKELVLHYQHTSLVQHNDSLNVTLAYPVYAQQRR

Take `CC(=O)NS(=O)(=O)c1ccccc1N[C@@H](C)c1cc(C)cn2c(=O)c(C)c(-c3ccc4c(c3)CC(F)(F)C4)nc12` [Compound 1040]: the “T47D pAKT S473 HTRF IC50 (H1047R): T47D (H1047R) selectivity over SKBR3 (WT)” value under setting [1] is on record as “C (C denotes ≤5-fold)”. On the same count and under the same terms, for `CCc1c(-c2ccc3c(c2)c(C)cn3C)nc2c([C@H](C)Nc3ccccc3C(=O)O)cc(C)cn2c1=O` [Compound 1043] the value was “B (B denotes 20-fold≥value>5-fold)”. As usually defined, the IC50 is the concentration that inhibits the measured activity by half. High values mean lower potency, low ones higher potency. Take `Cc1cc([C@@H](C)Nc2ccccc2C(=O)O)c2nc(-c3ccc4c(c3)c(C#N)nn4C3CC3)c(C)c(=O)n2c1` [Compound 1048]: the IC50 lay in the range of 100 to 500 nM. The “T47D pAKT S473 HTRF IC50 (H1047R): T47D (H1047R) selectivity over SKBR3 (WT)” value under setting [1] is “A (A denotes >20-fold)”. The matching figures for `Cc1cc([C@H](C)Nc2ccccc2C(=O)O)c2nc(-c3ccc4c(c3)c(C#N)nn4C3CC3)c(C)c(=O)n2c1` [Compound 1049]: > 2000 nM and “C (C denotes ≤5-fold)”. The matching figures for `Cc1cc([C@@H](C)Nc2ccccc2C(=O)O)c2nc(-c3cnc4c(c3)c(C)cn4C)c(C)c(=O)n2c1` [Compound 1050]: < 100 nM and “A (A denotes >20-fold)”. For the compound `Cc1cc([C@H](C)Nc2ccccc2C(=O)O)c2nc(-c3cnc4c(c3)c(C)cn4C)c(C)c(=O)n2c1` [Compound 1051], the “T47D pAKT S473 HTRF IC50 (H1047R): T47D (H1047R) selectivity over SKBR3 (WT)” value under setting [1] was “C (C denotes ≤5-fold)”.

In turn, `Cc1cc([C@@H](C)Nc2ccccc2C(=O)O)c2nc(-c3cnc(C)c(Cl)c3)c(C)c(=O)n2c1` [Compound 1052] displayed a concentration for half-maximal inhibition (IC50) of 100 to 500 nM. Under setting [1], the “T47D pAKT S473 HTRF IC50 (H1047R): T47D (H1047R) selectivity over SKBR3 (WT)” value is listed as “A (A denotes >20-fold)”. As for `Cc1cc([C@H](C)Nc2ccccc2C(=O)O)c2nc(-c3cnc4c(c3)c(C)cn4C)c(C)c(=O)n2c1` [Compound 1053], the “T47D pAKT S473 HTRF IC50 (H1047R): T47D (H1047R) selectivity over SKBR3 (WT)” value under setting [1] is “C (C denotes ≤5-fold)”. The same measure, in the same setting: for `Cc1cc(C(C)Nc2ccccc2C(=O)O)c2nc(-c3cnc4c(c3)c(C)nn4C3CC3)c(C)c(=O)n2c1` (centres unmarked) [Compound 1054] the value was “B (B denotes 20-fold≥value>5-fold)”. Regarding `Cc1cc([C@@H](C)Nc2ccccc2C(=O)O)c2nc(C3CCOCC3)c(C)c(=O)n2c1` [Compound 1055], the 50% inhibitory concentration (IC50) was 100 to 500 nM. Further, the “T47D pAKT S473 HTRF IC50 (H1047R): T47D (H1047R) selectivity over SKBR3 (WT)” value under setting [1] is reported as “A (A denotes >20-fold)”. The matching figures for `Cc1cc([C@H](C)Nc2ccccc2C(=O)O)c2nc(C3CCOCC3)c(C)c(=O)n2c1` [Compound 1056]: > 2000 nM and “C (C denotes ≤5-fold)”. Consider `Cc1cc([C@H](C)Nc2ccccc2S(N)(=O)=O)c2nc(-c3cnc4c(c3)c(C)cn4C)c(C)c(=O)n2c1` [Compound 1060], for which the 50% inhibitory concentration (IC50) was > 2000 nM. Also, the “T47D pAKT S473 HTRF IC50 (H1047R): T47D (H1047R) selectivity over SKBR3 (WT)” value under setting [2] was “C (C denotes ≤5-fold)”. For the compound `Cc1cc([C@@H](C)Nc2ccccc2S(C)(=O)=O)c2nc(-c3ccc4c(C)cn(C)c4c3)c(C)c(=O)n2c1` [Compound 1061], the “T47D pAKT S473 HTRF IC50 (H1047R): T47D (H1047R) selectivity over SKBR3 (WT)” value under setting [2] was “C (C denotes ≤5-fold)”. Still for that read-out and setting: for `Cc1cc([C@H](C)Nc2ccccc2S(C)(=O)=O)c2nc(-c3ccc4c(C)cn(C)c4c3)c(C)c(=O)n2c1` [Compound 1062] the value was “C (C denotes ≤5-fold)”.

The compound `Cc1cc(C(C)Nc2ccccc2C(N)=O)c2nc(-c3ccnc(C4CC4)c3)c(C)c(=O)n2c1` (centres unmarked) [Compound 1063] gave an IC50 of 100 to 500 nM. The “T47D pAKT S473 HTRF IC50 (H1047R): T47D (H1047R) selectivity over SKBR3 (WT)” value under setting [2] is given as “A (A denotes >20-fold)”. For `Cc1cc([C@H](C)Nc2ccccc2C(=O)O)c2nc(-c3ccnc(C)c3)c(C)c(=O)n2c1` [Compound 1068], in that order: > 2000 nM and “C (C denotes ≤5-fold)”. The matching figures for `Cc1cc([C@@H](C)Nc2ccccc2C(=O)O)c2nc(-c3ccc(Cl)cc3F)c(C)c(=O)n2c1` [Compound 1069]: < 100 nM and “A (A denotes >20-fold)”. For `COc1ccc(-c2nc3c([C@@H](C)Nc4ccccc4C(=O)O)cc(C)cn3c(=O)c2C)cc1` [Compound 1070], in that order: < 100 nM and “A (A denotes >20-fold)”. With `COc1ccc(-c2nc3c([C@H](C)Nc4ccccc4C(=O)O)cc(C)cn3c(=O)c2C)cc1` [Compound 1071], the half-maximal inhibitory concentration (IC50) was > 2000 nM. In addition, the “T47D pAKT S473 HTRF IC50 (H1047R): T47D (H1047R) selectivity over SKBR3 (WT)” value under setting [2] is reported as “C (C denotes ≤5-fold)”. The matching figures for `Cc1cc([C@@H](C)Nc2ccccc2C(=O)O)c2nc(-c3cccc(F)c3)c(C)c(=O)n2c1` [Compound 1073]: > 2000 nM and “C (C denotes ≤5-fold)”. Consider `Cc1cc([C@H](C)Nc2ccccc2C(=O)O)c2nc(-c3ccc(CC4CCN(C(=O)C5CC5)CC4)c(F)c3)c(C)c(=O)n2c1` [Compound 1075], for which the IC50 was > 2000 nM. For the same compound, the “T47D pAKT S473 HTRF IC50 (H1047R): T47D (H1047R) selectivity over SKBR3 (WT)” value under setting [2] was “C (C denotes ≤5-fold)”. `Cc1cc([C@@H](C)Nc2ccccc2C(=O)O)c2nc(-c3cccc(C(F)F)c3)c(C)c(=O)n2c1` [Compound 1077] showed an IC50 of 500 to 2000 nM. Besides, the “T47D pAKT S473 HTRF IC50 (H1047R): T47D (H1047R) selectivity over SKBR3 (WT)” value under setting [2] is “B (B denotes 20-fold≥value>5-fold)”. The compound `Cc1cc([C@H](C)Nc2ccccc2C(=O)O)c2nc(-c3ccc4c(c3)c(C#N)nn4C)c(C)c(=O)n2c1` [Compound 1082] registered a concentration for half-maximal inhibition (IC50) of 500 to 2000 nM. Further, the “T47D pAKT S473 HTRF IC50 (H1047R): T47D (H1047R) selectivity over SKBR3 (WT)” value under setting [2] is “B (B denotes 20-fold≥value>5-fold)”.

`Cc1cc([C@H](C)Nc2ccccc2C(=O)O)c2nc(-c3cnc(C#N)c(Cl)c3)c(C)c(=O)n2c1` [Compound 1084]: the half-inhibitory concentration (IC50) was > 2000 nM. Besides, under setting [2], the “T47D pAKT S473 HTRF IC50 (H1047R): T47D (H1047R) selectivity over SKBR3 (WT)” value is “C (C denotes ≤5-fold)”. The matching figures for `Cc1cc(C(C)Nc2ccccc2)c2nc(N3Cc4ccccc4C3)c(C)c(=O)n2c1` (centres unmarked) [Compound 1085]: > 2000 nM and “C (C denotes ≤5-fold)”. In the case of `Cc1cc(C(C)Nc2ccccc2)c2nc(-c3ccc(F)cc3)c(C)c(=O)n2c1` (centres unmarked) [Compound 1086], the half-maximal inhibitory concentration (IC50) is > 2000 nM. Moreover, the “T47D pAKT S473 HTRF IC50 (H1047R): T47D (H1047R) selectivity over SKBR3 (WT)” value under setting [2] is listed as “C (C denotes ≤5-fold)”. As for `Cc1cc([C@@H](C)Nc2ccccc2C(N)=O)c2nc(-c3ccnc(C4CC4)c3)c(C)c(=O)n2c1` [Compound 1089], the IC50 is > 2000 nM. Moreover, the “T47D pAKT S473 HTRF IC50 (H1047R): T47D (H1047R) selectivity over SKBR3 (WT)” value under setting [2] is recorded as “C (C denotes ≤5-fold)”. For `Cc1cc(C(C)Nc2ccccc2C(N)=O)c2nc(-c3ccnc(C4CC4)c3)c(C)c(=O)n2c1` (centres unmarked) [Compound 1090], in that order: < 100 nM and “A (A denotes >20-fold)”.

Compound `Cc1cc(C(C)Nc2ccccc2C(N)=O)c2nc(-c3ccc(F)c(C#N)c3)c(C)c(=O)n2c1` (centres unmarked) [Compound 1092] yielded an IC50 of 100 to 500 nM. Further, the “T47D pAKT S473 HTRF IC50 (H1047R): T47D (H1047R) selectivity over SKBR3 (WT)” value under setting [2] was “A (A denotes >20-fold)”. The compound `Cc1cc(C(C)Nc2ccccc2C(N)=O)c2nc(-c3cnc(C)c(Cl)c3)c(C)c(=O)n2c1` (centres unmarked) [Compound 1094] yielded an IC50 of 100 to 500 nM. Under setting [2], the “T47D pAKT S473 HTRF IC50 (H1047R): T47D (H1047R) selectivity over SKBR3 (WT)” value was “A (A denotes >20-fold)”.

(Values after patent US20260132129A1 (Genesis Therapeutics, Inc., priority 2022, published 2026).)
